# Test system: not given
# Experiment: not given
# Details: not given
row,melting point,Structure (SMILES)
1,196 to 197 °C,"Cc1cccc(F)c1CN1CC(=O)Nc2ccc(Cl)cc2C1C(F)(F)F (stereo not drawn) [compound 180, 7-Chloro-4-(2-fluoro-6-methylbenzyl)-1,5-dihydro-5-(trifluoromethyl)-1,4-benzodiazepin-2-one]"
2,139 to 140 °C,"CCCCCC1(C(F)(F)F)N=C(C)C(=O)Nc2ccccc21 (stereo not drawn) [compound 181, 3-Methyl-5-pentyl-1,5-dihydro-5-(trifluoromethyl)-1,4-benzodiazepin-2-one]"
3,181 to 182 °C,"CCC1=NC(C#CC2CC2)(C(F)(F)F)c2ccccc2NC1=O (stereo not drawn) [compound 186, 3-Ethyl-5-(cyclopropylethynyl)-1,5-dihydro-5-(trifluoromethyl)-1,4-benzodiazepin-2-one]"
4,153 to 155 °C,"CCCCCC1(C(F)(F)F)N=CC(=O)Nc2ccc(Cl)cc21 (stereo not drawn) [compound 187, 7-Chloro-5-pentyl-1,5-dihydro-5-(trifluoromethyl)-1,4-benzodiazepin-2-one]"
5,150 to 152 °C,"CC(C)CCC1(C(F)(F)F)N=CC(=O)Nc2ccc(Cl)cc21 (stereo not drawn) [compound 188, 7-Chloro-5-(3-methylbutyl)-1,5-dihydro-5-(trifluoromethyl)-1,4-benzodiazepin-2-one]"
6,151 to 153 °C,"CC(C)CCC1(C(F)(F)F)N=CC(=O)Nc2ccc(Cl)cc21 (stereo not drawn) [compound 189, 7-Chloro-5-(3-methylbutyl)-1,5-dihydro-5-(trifluoromethyl)-1,4-benzodiazepin-2-one]"
7,160 to 162 °C,"O=C1C=NC(Cc2ccccc2)(C(F)(F)F)c2cc(Cl)ccc2N1 (stereo not drawn) [compound 190, 7-Chloro-5-benzyl-1,5-dihydro-5-(trifluoromethyl)-1,4-benzodiazepin-2-one]"
8,150 to 153 °C,"O=C1C=NC(/C=C/C2CC2)(C(F)(F)F)c2cc(Cl)ccc2N1 (stereo not drawn) [compound 191, 7-Chloro-5-(2-cyclopropyl-E-ethenyl)-1,5-dihydro-5-(trifluoromethyl)-1,4-benzodiazepin-2-one]"
9,115 to 120 °C,"CCCCCCC1(C(F)(F)F)N=CC(=O)Nc2ccc(Cl)cc21 (stereo not drawn) [compound 192, 7-Chloro-5-hexyl-1,5-dihydro-5-(trifluoromethyl)-1,4-benzodiazepin-2-one]"
10,152 to 155 °C,"O=C1C=NC(CCC2CC2)(C(F)(F)F)c2cc(Cl)ccc2N1 (stereo not drawn) [compound 193, 7-Chloro-5-(2-cyclopropylethyl)-1,5-dihydro-5-(trifluoromethyl)-1,4-benzodiazepin-2-one]"
11,146 to 148 °C,"CC1=NC(CCC2CC2)(C(F)(F)F)c2cc(Cl)ccc2NC1=O (stereo not drawn) [compound 194, 7-Chloro-3-methyl-5-(2-cyclopropylethyl)-1,5-dihydro-5-(trifluoromethyl)-1,4-benzodiazepin-2-one]"
12,185 to 187 °C,"O=C1C=NC(C#CC2CC2)(C(F)(F)F)c2c(ccc(F)c2F)N1 (stereo not drawn) [compound 195, 6,7-Difluoro-5-(2-cyclopropylethynyl)-1,5-dihydro-5-(trifluoromethyl)-1,4-benzodiazepin-2-one]"
13,105 to 108 °C,"O=C1C=NC(CC2CC2)(C(F)(F)F)c2cc(Cl)ccc2N1 (stereo not drawn) [compound 196, 7-Chloro-5-(cyclopropylmethyl)-1,5-dihydro-5-(trifluoromethyl)-1,4-benzodiazepin-2-one]"
14,178 to 180 °C,"O=C1C=NC(CCCC(F)(F)F)(C(F)(F)F)c2cc(Cl)ccc2N1 (stereo not drawn) [compound 197, 7-Chloro-5-(4,4,4-trifluorobutyl)-1,5-dihydro-5-(trifluoromethyl)-1,4-benzodiazepin-2-one]"
15,145 to 146 °C,"COc1ccc2c(c1)C(C#CC1CC1)(C(F)(F)F)N=CC(=O)N2 (stereo not drawn) [compound 198, 7-Methoxy-5-(cyclopropylethynyl)-1,5-dihydro-5-(trifluoromethyl)-1,4-benzodiazepin-2-one]"
16,175 to 178 °C,"O=C1C=NC(C#CC2CC2)(C(F)(F)F)c2cc(F)ccc2N1 (stereo not drawn) [compound 199, 7-Fluoro-5-(cyclopropylethynyl)-1,5-dihydro-5-(trifluoromethyl)-1,4-benzodiazepin-2-one]"
17,158 to 160 °C,"O=C1C=NC(/C=C\C2CC2)(C(F)(F)F)c2cc(F)ccc2N1 (stereo not drawn) [compound 200, 7-Fluoro-5-(2-cyclopropyl-Z-ethenyl)-1,5-dihydro-5-(trifluoromethyl)-1,4-benzodiazepin-2-one]"
18,160 to 163 °C,"O=C1C=NC(CCC(F)(F)F)(C(F)(F)F)c2c(ccc(F)c2F)N1 (stereo not drawn) [compound 201, 6,7-Difluoro-5-(3,3,3-trifluoropropyl)-1,5-dihydro-5-(trifluoromethyl)-1,4-benzodiazepin-2-one]"
19,137 to 140 °C,"O=C1C=NC(Cc2ccccn2)(C(F)(F)F)c2cc(Cl)ccc2N1 (stereo not drawn) [compound 202, 7-Chloro-5-(2-pyridylmethyl)-1,5-dihydro-5-(trifluoromethyl)-1,4-benzodiazepin-2-one]"
20,174 to 176 °C,"CCCCC1(C(F)(F)F)N=CC(=O)Nc2ccc(Cl)cc21 (stereo not drawn) [compound 203, 7-Chloro-5-butyl-1,5-dihydro-5-(trifluoromethyl)-1,4-benzodiazepin-2-one]"

# Test system: HIV-1 (RF)
# Experiment: HIV RNA assay: microplate based compound evaluation in HIV-1 infected MT-2 cells
# Type: cell-based
# Details: Human immunodeficiency virus 1, MT2, 72 h; HIV-1 (RF) infected MT-2 cells, 3 days of culture; virus inoculum standardised to this value; read-out: IC90 value (concentration of compound required to reduce the HIV RNA level by 90%)
# Experimental: MT-2 and MT-4 cells were maintained in RPMI 1640 supplemented with 5% fetal calf serum (FCS) for MT-2 cells or 10% FCS for MT-4 cells, 2 mM L-glutamine and 50 μg/mL gentamycin, all from Gibco. HIV-1 RF was propagated in MT-4 cells in the same medium. Virus stocks were prepared approximately 10 days after acute infection of MT-4 cells and stored as aliquots at −70° C. Infectious titers of HIV-1 (RF) stocks were 1-3×10^7 PFU (plaque forming units)/mL as measured by plaque assay on MT-2 cells (see below). Each aliquot of virus stock used for infection was thawed only once.
# For evaluation of antiviral efficacy, cells to be infected were subcultured one day prior to infection. […]
# Cell lysates or purified RNA in 3 M or 5 M GED were mixed with 5 M GED and capture probe to a final guanidinium isothiocyanate concentration of 3 M and a final biotin oligonucleotide concentration of 30 nM. […] Immobilized alkaline phosphatase activity was detected by addition of 100 μL of 0.2 mM 4-methylumbelliferyl phosphate (MUBP, JBL Scientific) in buffer δ (2.5 M diethanolamine pH 8.9 (JBL Scientific), 10 mM MgCl2, 5 mM zinc acetate dihydrate and 5 mM N-hydroxyethyl-ethylene-diamine-triacetic acid). […] Fluorescence at […] was measured using a microplate fluorometer (Dynateck) exciting at […]. […]
row,IC90,Structure (SMILES)
1,0.2 µg/mL,"Nc1ccn([C@H]2CC[C@@H](CO)O2)c(=O)n1 [ddC, 2′,3′-dideoxycytidine]"
